From patent US20140100419A1, “ACTIVE VITAMIN D OR ANALOGS THEREOF FOR USE IN IN VIVO OR IN VITRO FERTILIZATION” (priority 2011, published 2014) come the findings set out here.

SMILES strings stand for the structures.

This experiment concerns human spermatozoa. In words: Intracellular calcium [Ca2+]i in fura-2 loaded human spermatozoa. It counts as cell-based. How it is done: Calcium measurements and the acrosome reaction were performed on motile spermatozoa isolated after percoll density gradient centrifugation (Supra sperm gradients, (ORIGO)) following the manufacturer's instructions. Briefly, spermatozoa were separated from seminal plasma by centrifugation on a discontinuous percoll gradient using a two-step gradient comprising 2 ml layers of 55% and 80% percoll respectively. Semen was placed on the top of the gradient and centrifuged at 300×g for 25 min. The spermatozoa at the base of the 80% fraction were collected and washed with a 5 ml volume of capacitating medium (CaCl2 1.5 mM, KCl 4.3 mM, NaHCO3 31 mM, HEPES 15 mM, Human Serum Albumin 5 mg/ml, Glucose 4.5 mM, Sodium Pyruvate 0.8 mM, Synthetic Serum Replacement, 0.5 ug/ml human recombinant insulin (Sperm preparation media (ORIGO)) and finally resuspended in capacitating media and used for the following assays of calcium measurements and acrosome reaction. All men were part of the above mentioned ongoing surveillance program of semen quality among young Danish men and included after approval from the local ethical committee (No. H-4-2010-016).
Semen samples were separated by percoll density gradient centrifugation to ensure viable and motile spermatozoa and resuspended in capacitating media for 1.5 hours. Afterwards, loaded with 3 μM of the fluorescent probe (intracellular calcium binding) fura-2/AM (Invitrogen, USA) for 30 min, centrifuged (10 min at 300 g) and washed with Krebs-Ringer buffer (120 mM NaCl, 15 mM NaHCO3, 5 mM KCl, 1 mM CaCl2, 5 mM Na2HPO4, 1 mM MgCl2 pH 7.3). […] Subsequently, 80 μl of the sperm sample was diluted in 920 μl Krebs-Ringer buffer and loaded on polylysine-coated chambers to minimize movement of the spermatozoa (Lab-Tek; Nalge Nunc International, USA). A Zeiss Axiovert 135 microscope equipped with a Zeiss Achrostigmat 40×1.3 NA objective was used to acquire images from the fluorescent probe. Excitation was obtained by a Polychrome Villuminator from Till Photonics (Germany) and images were acquired using a Cool Snap CCD camera (Photometrics, USA) from Robert Scientific (Malaysia). For measurements of [Ca2+]i, the excitation wavelengths were 338 and 380 nm, measuring emission above 510 nm using a cut-off filter. […] After background subtraction, ratio images were formed using MetaFluor software.
All experiments started by using low magnification to ensure visibility of several spermatozoa simultaneously. […] All measurements of [Ca^2+], were based upon evaluation of at least three spermatozoa simultaneously (see exact number in figure legends), and were repeated in at least three separate experiments. We used 10 different semen donors to ensure that all experiments were reproduced on semen samples from at least two different men.
(Calcium flux is commonly read through the fluorescence of an indicator in the cells.)

For the molecule `C=C1/C(=C\C=C2/CCC[C@]3(C)[C@@H]([C@H](C)CCCC(C)(C)O)CC[C@@H]23)C[C@@H](O)C[C@H]1O` [1β,25(OH)2D3, 1β,25-(OH)2D3], the “effect on calcium effect of progesterone” value (Example 4) is on record as “did not abrogate”. For the setting “Example 4, non-genomic competitive antagonist”, the “effect on calcium response to 1,25(OH)2D3” value is listed as “abrogated the response to 1,25(OH)2D3 completely”. Besides, the “effect of pretreatment on calcium response to 1,25(OH)2D3 (VD response)” value (pretreatment with 1-40 μM 1β,25(OH)2D3) is “blocked completely”.
As to `C=C1CC[C@H](O)C/C1=C/C=C1\CCC[C@]2(C)[C@@H]([C@H](C)CCCC(C)(C)O)CC[C@@H]12` [25-OH D3, 25-OH Vitamin D3], the “increase in [Ca2+]i” value (25-OH D3 100 nM) is given as “unable to elicit an increase”. Besides, the “increase of [Ca2+]i” value (Example 4, 25-OHD3 in the nanomolar range) was “unable to increase [Ca^2+], substantially” and the “increase of [Ca2+]i” value (Example 4, higher concentrations of 25-OHD3 (1 μM, FIG. 7)) was “marked but delayed increase”.
In the case of `C[C@H](CCC(=O)O)C[C@H](C)C[C@H](C)C(=O)/C=C(\O)[C@H](C)C[C@H](C)C/C=C/[C@@H](C)[C@@H](O)[C@@H](C)[C@@H](O)C[C@@H]1CC[C@@](C)([C@H]2CC[C@@](C)([C@@H](C)O)O2)O1` [Ionomycin, ionomycin], the “amplitude of calcium response from baseline” value (ionomycin 500 nM, calcium free media with EGTA) is given as below 3 fold.
For `COc1ccc2c(c1)CC[C@@H]1[C@@H]2CC[C@]2(C)[C@@H](NCCCCCCN3C(=O)C=CC3=O)CC[C@@H]12` [U73122, 1-[6-[[17fi-3-methoxyestra-1,3,5(10)-trien-17-yl]amino]hexyl]-lH-pyrrole-2,5-dione], where the note is “10 μM U73122”, the “increase of baseline [Ca2+]i” value is listed as “more than 5 fold” and the “proportion of spermatozoa with increased baseline [Ca2+]i” value is given as above 80%. Besides, the “effect of PLC inhibition on the effect of progesterone” value (U73122, data not shown) is listed as “unable to abrogate”.
Regarding `C=C1/C(=C\C=C2/CCC[C@]3(C)[C@@H]([C@H](C)/C=C/[C@@H](O)C4(C(=O)OCCCC)CC4)CC[C@@H]23)C[C@@H](O)C[C@@H]1O` [ZK159222], the “effect on calcium increase by 1,25(OH)2D3” value (Example 4, pre-treatment with 100 nM ZK159222 (FIG. 5)) is “unable to influence”. In addition, for the setting “ZK159222 0.1-100 μM, data not shown”, the “effect of antagonist on calcium response to 1,25(OH)2D3” value is listed as “unable to abrogate or suppress”.
As for `CC(=O)[C@H]1CC[C@H]2[C@@H]3CCC4=CC(=O)CC[C@]4(C)[C@H]3CC[C@]12C` [progesterone], the “time until calcium level restored to baseline after initiation of treatment” value (10 μM progesterone after nifedipine 10 μM pretreatment) is 9 min. For the same molecule, the “increase in [Ca2+]i” value (calcium free media with 5 μM EGTA) was “could not induce an increase”. Besides, where the note is “calcium free media, calcium added after treatment”, the “increase in [Ca2+]i after addition of 1 mM calcium” value is “comparable to the increase observed in the normal calcium containing Krebs Ringer solution”.
Take `C/C=C(/C)C(=O)O[C@H]1C(C)=C2[C@H]([C@@H]1OC(=O)CCCCCCC)[C@@](C)(OC(C)=O)C[C@H](OC(=O)CCC)[C@@]1(O)[C@H]2OC(=O)[C@@]1(C)O` [thapsigargin]: the “stable plateau of calcium concentration versus baseline” value (thapsigargin 4 μM, nine minutes after exposure) is listed as 3 fold. Also, the “effect on calcium response to 1,25(OH)2D3” value (thapsigargin <1 μM) is on record as “unable to abrogate”.
